Data on ten compounds can be found in ChEMBL document CHEMBL1201862, “PubChem BioAssay data set” (2004).

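Following 48 hours of exposure in 96-well plates, responses at five concentrations were used to interpolate endpoints linearly. Abbreviation: GI50, concentration required for 50% inhibition of growth.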 The source made the active and inactive calls. Cut-off read from the data, not from the text of the source: active = GI50 up to about 1.1 µM and inactive = higher.

Test systems include 786-0; A549; ACHN; DU-145; HCT-116; HCT-15; HOP-92; HT-29; K562; MDA-MB-231; NCI-H522; NCI/ADR-RES; PC-3; SF-268; SF-295; SF-539; SK-OV-3; SR; UACC-257; OVCAR-4.
Common to all, as to assay: DTP human tumour cell line panel, 48 h

Take `CNc1cc([N+](=O)[O-])ccc1C(=O)N1CCC[C@H]1CO`: the GI50 was > 100 µM (inactive) in the assay on 786-0; > 100 µM (inactive) in the assay on A549; > 100 µM (inactive) in the assay with ACHN; > 100 µM (inactive) in the assay with DU-145; > 100 µM (inactive) in the assay on HCT-116; above 100 µM in the assay on HCT-15. Besides, the GI50 in the assay with HOP-92, with HT-29, with K562, in the assay with MDA-MB-231, in the assay on NCI-H522 and with NCI/ADR-RES was > 100 µM (inactive) each time. Besides, the GI50 is > 100 µM (inactive) in the assay on PC-3; 8.83 µM (inactive) in the assay with SF-268; > 100 µM (inactive) with SF-295; > 100 µM (inactive) in the assay on SF-539; > 100 µM (inactive) in the assay on SK-OV-3; 44.3 µM (inactive) with SR. Also, the GI50 in the assay on UACC-257 is > 100 µM (inactive).

On to `Cc1nc2c(=O)[nH]c(=O)nc-2n(CCO)c1C`, for which the GI50 with 786-0 was > 100 µM (inactive); in the assay on A549, > 100 µM (inactive); in the assay on ACHN, > 100 µM (inactive); in the assay with DU-145, > 100 µM (inactive); in the assay with HCT-116, > 100 µM (inactive); with HCT-15 it was above 100 µM. The GI50 with HOP-92, with HT-29, in the assay with K562, in the assay on MDA-MB-231, with NCI-H522 and in the assay on NCI/ADR-RES was > 100 µM (inactive) throughout. The GI50 in the assay with OVCAR-4, in the assay on PC-3, in the assay with SF-268, in the assay on SF-295, with SF-539 and in the assay with SK-OV-3 was > 100 µM (inactive) throughout. Further, the GI50 in the assay with SR and in the assay on UACC-257 was > 100 µM (inactive) throughout.

As for `CN(C)c1cccc(-c2cc(=S)c3cc4c(cc3[nH]2)OCO4)c1`, the GI50 was 6.07 µM (inactive) in the assay with 786-0; 4.85 µM (inactive) with A549; 7.93 µM (inactive) with ACHN; 4.74 µM (inactive) with DU-145; 5.74 µM (inactive) in the assay with HCT-116; 4.74 µM in the assay on HCT-15. Moreover, the GI50 in the assay with HOP-92 is > 100 µM (inactive); in the assay on HT-29 it was 6.24 µM (inactive); in the assay with MDA-MB-231 it was 31.9 µM (inactive); in the assay with NCI-H522, 12.6 µM (inactive); in the assay with NCI/ADR-RES, 3.94 µM (inactive); with OVCAR-4 it was > 100 µM (inactive). In addition, the GI50 is 3.61 µM (inactive) in the assay with PC-3; > 61.2 µM (inactive) with SF-268; 4.6 µM (inactive) with SF-295; 4.27 µM (inactive) with SF-539; 6.14 µM (inactive) in the assay with SK-OV-3; 4.95 µM (inactive) in the assay on SR. The GI50 with UACC-257 was 9.25 µM (inactive).

As for `O=C1OC(C2=CC(=O)c3ccccc3C2=O)C(Cl)=C1Cl` (stereo unspecified), the GI50 was 17.9 µM (inactive) with 786-0; 89.5 µM (inactive) in the assay on A549; 15.8 µM (inactive) with ACHN; 39.7 µM (inactive) in the assay on DU-145; 32.4 µM (inactive) in the assay with HCT-116; 20 µM in the assay on HCT-15. In addition, the GI50 with HOP-92 was 47 µM (inactive); in the assay with HT-29, 42 µM (inactive); with K562, 32.7 µM (inactive); in the assay with MDA-MB-231, 11.6 µM (inactive); in the assay with NCI-H522, 15.9 µM (inactive); in the assay with NCI/ADR-RES, 31.5 µM (inactive). For the same compound, the GI50 is 27.3 µM (inactive) in the assay with PC-3; 27.2 µM (inactive) in the assay with SF-268; 86.5 µM (inactive) in the assay with SF-295; 27.4 µM (inactive) in the assay with SF-539; 79.6 µM (inactive) in the assay with SK-OV-3; 24 µM (inactive) in the assay with SR. The GI50 with UACC-257 was 77.8 µM (inactive).

Regarding `COC(=O)[C@H]1[C@H](OC(=O)[C@@H](OC)c2ccccc2)ON2CC[C@@H](OC(=O)c3ccccc3)[C@H]12`, the GI50 in the assay with 786-0 is 43 µM (inactive); with A549, > 100 µM (inactive); in the assay on ACHN, 10.3 µM (inactive); in the assay with DU-145, > 100 µM (inactive); in the assay with HCT-116, > 100 µM (inactive); in the assay with HCT-15, above 100 µM. The GI50 was 30.3 µM (inactive) with HOP-92; 51.3 µM (inactive) in the assay on HT-29; > 100 µM (inactive) in the assay on K562; 74.3 µM (inactive) with MDA-MB-231; 2.65 µM (inactive) in the assay with NCI-H522; > 100 µM (inactive) in the assay on NCI/ADR-RES. Moreover, the GI50 in the assay on OVCAR-4 is > 100 µM (inactive); in the assay on PC-3, > 100 µM (inactive); in the assay with SF-268, 54.3 µM (inactive); in the assay with SF-295, 39.4 µM (inactive); in the assay on SK-OV-3, > 100 µM (inactive); with SR, > 100 µM (inactive). For the same compound, the GI50 in the assay on UACC-257 is > 100 µM (inactive).

`CCOC(=O)C(NC(=O)c1cccc(Cl)c1)(Nc1ccc(S(=O)(=O)Nc2cc(C)nc(C)n2)cc1)C(F)(F)F` (stereo unspecified): the GI50 in the assay with 786-0 is > 100 µM (inactive); with A549, > 100 µM (inactive); in the assay with ACHN it was > 100 µM (inactive); in the assay with DU-145, > 100 µM (inactive); with HCT-116, > 100 µM (inactive); in the assay on HCT-15 it was above 100 µM. Moreover, the GI50 is 80.5 µM (inactive) in the assay with HOP-92; > 100 µM (inactive) in the assay with HT-29; > 100 µM (inactive) with MDA-MB-231; > 100 µM (inactive) with NCI-H522; > 100 µM (inactive) in the assay with NCI/ADR-RES; > 100 µM (inactive) in the assay on OVCAR-4. Also, the GI50 in the assay on PC-3 is > 100 µM (inactive); in the assay on SF-268, > 100 µM (inactive); in the assay on SF-295, > 100 µM (inactive); in the assay with SF-539, > 100 µM (inactive); with SK-OV-3, > 100 µM (inactive); with SR, 68.7 µM (inactive). Also, the GI50 in the assay on UACC-257 is > 100 µM (inactive).

In the case of `O=C1c2ccccc2-c2c1c1ccccc1c(=O)n2Cc1ccco1`, the GI50 in the assay on 786-0 is > 100 µM (inactive); in the assay with A549, > 100 µM (inactive); in the assay with DU-145, > 100 µM (inactive); with HCT-116 it was > 100 µM (inactive); with HCT-15, above 100 µM; in the assay on HOP-92, > 100 µM (inactive). The GI50 with HT-29, in the assay with K562, in the assay with MDA-MB-231, in the assay on NCI-H522, in the assay with NCI/ADR-RES and in the assay with PC-3 was > 100 µM (inactive) throughout. For the same compound, the GI50 in the assay on SF-268 is > 100 µM (inactive); in the assay on SF-295 it was > 100 µM (inactive); with SF-539, 39.6 µM (inactive); with SK-OV-3 it was > 100 µM (inactive); in the assay with SR it was > 100 µM (inactive); in the assay on UACC-257, > 100 µM (inactive).

With `CCOC(=O)c1cc2c(OC(C)=O)ccc(OC(C)=O)c2s1`, the GI50 in the assay on 786-0 was 2.49 µM (inactive); in the assay with A549, 10.7 µM (inactive); in the assay with ACHN it was 1.61 µM (inactive); in the assay with DU-145 it was 4.83 µM (inactive); in the assay on HCT-116 it was 2.81 µM (inactive); in the assay on HCT-15, 1.75 µM. For the same compound, the GI50 is 1.44 µM (inactive) in the assay with HOP-92; 3.02 µM (inactive) in the assay with HT-29; 2.02 µM (inactive) in the assay with MDA-MB-231; 0.301 µM (active) in the assay with NCI-H522; 2.2 µM (inactive) with NCI/ADR-RES; 4.75 µM (inactive) in the assay on OVCAR-4. Also, the GI50 is 1.96 µM (inactive) in the assay with PC-3; 1.79 µM (inactive) with SF-268; 6.9 µM (inactive) in the assay on SF-295; 1.73 µM (inactive) in the assay on SF-539; 9.4 µM (inactive) with SK-OV-3; 3.27 µM (inactive) with SR. Further, the GI50 in the assay on UACC-257 is 1.95 µM (inactive).

For `CCc1nc(N)nc(N)c1-c1ccc(Cc2ccccc2)c([N+](=O)[O-])c1`, the concentration for 50% growth inhibition (GI50) was < 0.01 µM (active) in the assay with 786-0; < 0.01 µM (active) in the assay on A549; < 0.01 µM (active) with ACHN; 0.0585 µM (active) in the assay on DU-145; < 0.01 µM (active) with HCT-116; below 0.01 µM with HCT-15. Moreover, the GI50 in the assay on HOP-92 was 1.17 µM (inactive); in the assay on HT-29 it was < 0.01 µM (active); in the assay with K562, < 0.01 µM (active); with MDA-MB-231 it was 38.3 µM (inactive); in the assay with NCI-H522, 0.16 µM (active); in the assay on NCI/ADR-RES, 0.0475 µM (active). In addition, the GI50 with OVCAR-4 was 16.6 µM (inactive); in the assay on PC-3, < 0.0353 µM (active); in the assay with SF-268, 0.0192 µM (active); in the assay on SF-295 it was 0.0116 µM (active); in the assay with SF-539, 0.0475 µM (active); in the assay on SK-OV-3, 7.87 µM (inactive). For the same compound, the 50% growth inhibitory concentration (GI50) with SR was < 0.01 µM (active); in the assay with UACC-257 it was 23.6 µM (inactive).

In the case of `c1ccc2c(c1)c(N1CCCCC1)cc1nc3c(cc(N4CCCCC4)c4ccccc43)nc12`, the GI50 in the assay on 786-0 is > 100 µM (inactive); with A549, > 100 µM (inactive); with ACHN, > 100 µM (inactive); with DU-145, > 100 µM (inactive); with HCT-116 it was > 100 µM (inactive); in the assay on HCT-15 it was above 100 µM. Also, the GI50 with HOP-92, in the assay with HT-29, with K562, in the assay on MDA-MB-231, in the assay on NCI-H522 and in the assay with NCI/ADR-RES was > 100 µM (inactive) in each case. Also, the GI50 in the assay with OVCAR-4, with PC-3, in the assay on SF-295, in the assay with SF-539, in the assay on SK-OV-3 and in the assay on SR was > 100 µM (inactive) each time. Besides, the GI50 in the assay on UACC-257 is > 100 µM (inactive).

In general, GI50 refers to the concentration that inhibits growth by half.
